Measurements from patent publication US5856189A, “Cell culture model for drug bioavailability” (priority 1997, dated 1999).

Columns and labels:
Caco-2 cells [1] = test: Apical/basolateral distribution of midazolam and metabolite across Caco-2 monolayers; details: every time point, also after basolateral MDZ
From the text: At the end of this period, the medium was replaced with medium not containing vitamin D (except that contributed by the 5% FBS).

Caco-2 cells [2] = test: Glucuronidation of 1'-OH-MDZ in Caco-2 cells; details: 2-24 h with 4 μM MDZ; β-glucuronidase
Method: The experiments of this example assess whether glucuronidation occurs in the culture system of the present invention. […] Each of a complete set of parallel 0.5 mL samples was diluted to a volume of 1 mL and spiked with 20 ng 1'-[^2 H2 ],1'-OH-MDZ (no glucuronidase treatment).

CYP3A (Caco-2 cells) [3] = target: CYP3A (Caco-2 cells) (Homo sapiens, UniProt P08684); details: serum-free; 4 μM MDZ apical, 6.5 h; FIG. 9
Chain of CYP3A (Caco-2 cells) (Homo sapiens, UniProt P08684) (P08684 2-503): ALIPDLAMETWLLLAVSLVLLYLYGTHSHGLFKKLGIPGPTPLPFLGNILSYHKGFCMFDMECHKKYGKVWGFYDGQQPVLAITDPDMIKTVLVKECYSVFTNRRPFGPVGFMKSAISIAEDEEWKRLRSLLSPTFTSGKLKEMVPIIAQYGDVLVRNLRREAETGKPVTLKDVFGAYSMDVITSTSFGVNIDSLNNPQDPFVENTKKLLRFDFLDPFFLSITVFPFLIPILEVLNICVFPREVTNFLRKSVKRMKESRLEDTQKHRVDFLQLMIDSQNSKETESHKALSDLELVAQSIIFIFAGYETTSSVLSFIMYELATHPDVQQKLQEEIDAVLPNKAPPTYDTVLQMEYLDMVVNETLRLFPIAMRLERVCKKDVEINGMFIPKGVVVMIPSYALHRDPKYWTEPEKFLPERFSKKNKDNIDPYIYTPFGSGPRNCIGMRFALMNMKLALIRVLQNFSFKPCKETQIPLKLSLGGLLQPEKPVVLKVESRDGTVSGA
Method: Standards were also prepared in duplicate. Known amounts of MDZ and 1'-OH-MDZ (1-50 ng) were combined with 100 mM potassium phosphate buffer, pH 7.4.
Unknowns and standards were extracted with 5 mL ethyl acetate and the upper organic layer transferred to clean tubes. The solvent was evaporated to dryness under a stream of nitrogen. The remaining solvent was reconstituted in 100 μL derivatizing reagent (10% N-methyl-N-(t-butyldimethylsilyl)trifluoroacetamide in acetonitrile).
At the end of this period, the medium was replaced with medium not containing vitamin D (except that contributed by the 5% FBS). Next, 4 μM MDZ was added to the apical (luminal) or basolateral (serosal) medium of the cells.
Parent drug and metabolite concentrations measured at 1 and 2 hours after MDZ administration were used for computation. The amount of 1'-OH-MDZ formed during this interval was determined as the sum of metabolite in the apical and basolateral compartments at 2 hours minus the total amount measured at 1 hour.
Because the incubation medium contained significant amounts of FBS, the fraction of MDZ bound to culture medium proteins was measured by equilibrium dialysis. […] The unbound concentration of MDZ in the apical and basolateral compartments during cell culture was calculated as the product of the experimentally determined MDZ-free fraction and total MDZ concentration. Since MDZ concentrations in the apical and basolateral compartments were not at equilibrium during the 1-2 hour MDZ incubation interval, the intracellular reaction was assumed to be driven by a MDZ concentration that was more closely aligned with the concentration in the basolateral compartment.
At the end of this period, the medium was replaced with medium containing neither serum nor vitamin D. Next, MDZ (4 μM) was added to the apical compartment.

CYP1A1 = test: Immunoblot of CYP1A1 protein in Caco-2 cells; assay type: cell-based, human; details: two weeks treatment, varying concentrations
[4] = system: CYP3A5 mRNA (Caco-2 cells); test: RT-PCR of CYP3A5 mRNA in treated Caco-2 cells; details: 0.05-1.0 μM, two weeks
Method: (§1) cDNA was prepared from the total RNA using reverse transcriptase from avian myeloblastosis virus (Seikagaku America). […] The polymerase chain reaction was performed on 1 μL of a 1:10 dilution in water of a prepared cDNA.
(§2) Each thermal cycle consisted of 95° C. for 1 min, then 65° C. for 1 min 15 sec; after completing all cycles, a 10 min extension step at 65° C. was performed.
(§3) PCR products were electrophoresed on agarose gels and stained with ethidium bromide. […] PCR products were judged to be of the size appropriate for amplification of the specific cDNA by comparison with molecular weight standards included on each gel.
(§4) The numbers of PCR cycles were as follows: CYP3A4, 36; CYP3A5, 33; CYP3A7, 39; mdr-1, 34; IFABP, 32; and villin, 27.

[5] = system: CYP3A7 mRNA (Caco-2 cells); test: RT-PCR of CYP3A7 mRNA in treated Caco-2 cells; details: 0.05-1.0 μM, two weeks
Method: as §1, §2, §3, §4

CYP2D6 = details: two weeks treatment, varying concentrations
From the text: (§5) The homogenates were electrophoresed in polyacrylamide gels containing 0.1% SDS, and the separated proteins were electrophoretically transferred to nitrocellulose. Nonspecific binding sites were blocked using 0.3% Tween 20 and 5% nonfat dry milk (Carnation) in Tris buffered saline.
CYP2D6 was detected using a polyclonal rabbit antibody developed against unique antigenic peptides and was obtained from Dr. Alastair Cribb (Merck Research Laboratories, West Point, Pa.).
(§6) Secondary antibodies of appropriate specificities conjugated with horseradish peroxidase were obtained commercially (rabbit anti-mouse IgG and goat anti-rabbit IgG/A/M from Zymed and mouse anti-goat IgG/A/M from Pierce). Binding of secondary antibodies was detected using the enhanced chemiluminescence (ECL™) reagents and film from Amersham.

[6] = system: CYP3A4 mRNA (Caco-2 cells)
Method: Harvesting for mRNA Analyses and RNA Isolation
The medium was aspirated and the culture inserts were washed three times with Hanks' BSS containing 15 mM HEPES. […] After 5 minutes, the cell lysate was transferred to a microcentrifuge tube and kept at -80° C. pending further processing. At a later time, the lysate was thawed quickly at 65° C., and total RNA was isolated according to the protocol of P. Chomczynski and N. Sacchi. Briefly, extraction was performed using the denaturing solution, 2M sodium acetate (pH 4), phenol, and chloroform (1:0.1:1:0.2). Next, precipitation was effected with 2 volumes of ethanol. Resolubilization and reprecipitation was then performed using the denaturing solution and 2 volumes of ethanol. […] The reagent volumes were adjusted proportionately as appropriate for the initial lysate volume.
as §1
Each thermal cycle consisted of 95° C. for 1 min, then 65° C. for 1 min 15 sec; after completing all cycles, a 10 min extension step at 65° C. was performed. The number of cycles performed in each PCR reaction is set forth below in the Examples.
as §3
An internal standard for quantitative competitive PCR of CYP3A4 cDNA was prepared by inserting a 30 base pair segment into the cDNA sequence to be amplified. PCR reaction mixtures were prepared by combining serial dilutions of a known amount of the standard cDNA and constant amounts of the unknown cDNA. The two cDNAs were amplified together and the products were separated on agarose gels. After staining with ethidium bromide, the two bands were quantitated densitometrically. An equivalence point (at which the densities of the standard and unknown bands are of equal optical density) was determined; the concentration of the unknown is equal to that of the standard at the point of equivalence.
The cells from all experiments were maintained in their respective differentiation media for two weeks post-confluence. Thereafter, the cells were used for midazolam metabolism studies and/or harvested for analysis of protein or mRNA (described below).
as §4
(§7) At that time, the medium was replaced with medium without vitamin D (except that contributed by the 5% FBS. Total RNA was then prepared as described above and subjected to RT-PCR using synthetic oligonucleotide primer pairs designed to selectively amplify fragments of the CYP3A4 and villin cDNAs (see Table 3). The numbers of PCR cycles were as follows: CYP3A4, 36; and villin, 27. Moreover, immunoblots were performed as described above for CYP3A, NADPH cytochrome P450 reductase, P-glycoprotein, and villin. The protein loads used for the immunoblot procedures were as follows: 5 μg for CYP3A, P-glycoprotein, villin; and 40 ,μg for NADPH cytochrome P450 reductase.

CYP3A (Caco-2 cells) [7] = test: Immunoblot of CYP3A immunoreactive protein in treated Caco-2 cells; details: for CYP3A4 expression at the highest concentrations used: FIGS. 2C and 3
Method: The medium was aspirated and the inserts were washed three times with Hanks' BSS containing 15 mM HEPES. Cells grown on Matrigel- (or Growth Factor Reduced Matrigel-) coated inserts were removed from the membranes using Dispase according to the manufacturer's protocol. Thereafter, 5 mM EDTA in normal saline containing 1 mM PMSF and 1 mM benzamidine was added to inhibit further digestion. The cell suspension was transferred to a microcentrifuge tube and pelleted by centrifugation at 325 g. The pellets were washed three times with Hanks' BSS containing 15 mM HEPES, 1 mM PMSF, and 1 mM benzamidine. The final pellet was resuspended in a solution of 20% v/v glycerol, 100 mM Tris HCl (pH 7.4), 10 mM EDTA, 1 mM dithiothreitol, I mM PMSF, 1 mM benzamidine, and 100 μg/mL aprotinin and homogenized in a conical ground glass tissue grinder with 20 passes of a ground glass pestle. The homogenate was subjected to 10 seconds of sonication and was then kept at -80° C. until analysis.
Cells grown on uncoated inserts or inserts coated with non-Matrigel matrices were harvested by scraping into Hanks' BSS containing HEPES and protease inhibitors, washed three times, and then homogenized, sonicated, and frozen as described above.
as §5
CYP1A1 was detected using a polyclonal goat antibody (Gentest) developed against rat CYP1A1 and CYP1A2. […] CYP3A proteins were detected using a mouse monoclonal antibody ("13-7-10") obtained from Dr. Pierre Kremers (Universite de Liege, Liege, Belgium). […] This antibody detects all known forms of human CYP3A.
as §6
In some cases, immunoblot protein concentrations were determined by computer-aided densitometry. When this procedure was conducted, optical densities were performed on a Macintosh (Apple) computer using the publicly available NIH Image program (developed at the U.S. National Institutes of Health and available on the Internet at http://rsb.info.nih.gov/nih-image/). Individual exposures were scanned into binary images with a ScanJetIIc color scanner (Hewlett-Packard). An optical density-concentration standard curve was prepared using the bands from second loaded serial dilutions of purified CYP3A4 protein, and the optical densities of unknowns were converted to quantitative numbers by comparison to this curve. This allowed for correction of the nonlinearity of ECL light output and ECL Hyperfilm.

CYP3A5 = test: Immunoblot of CYP3A5 protein in Caco-2 cells; assay type: cell-based, human; details: two weeks treatment, varying concentrations
Method: CYP3A5 was detected using an immunoadsorbed polyclonal rabbit antibody obtained from Dr. Steven A. Wrighton (Eli Lilly). The antibody may be generated by injecting rabbits subcutaneously with 100 μg of P450IIIA5 in 0.75 mL of phosphate-buffered saline in an emulsion made with 1.25 mL of Freund's complete adjuvant. Four weeks later, 50 μg of P450IIIA5 (in the same preparation) is injected. Finally, eight weeks from the initial injection, 50 μg of […] in 300 μL of phosphate-buffered saline is injected intravenously into the rabbits' ear vein. Serum was obtained 10 weeks following the initial immunization and weekly thereafter. The IgG fraction was then isolated and antibodies specific to CYP3A5 were isolated by adsorption of contaminating antibodies to sepharose-bound CYP3A4 [S. A. Wrighton et al., Mol. Pharmacol. 38:207-213 (1990).

[8] = system: CYP3A3 mRNA (Caco-2 cells); test: RT-PCR of CYP3A3 mRNA in treated Caco-2 cells; assay type: cell-based, human; details: treated or untreated Caco-2 cells
From the text: Primer sequences for amplification of CYP3A3, CYP3A4, CYP3A5, and
These are the same primer sequences previously used by J. C. Kolars et al. [Pharmacogenetics 4:247-259 (1994)], except that a different antisense primer (SEQ ID NO:9) was used for CYP3A5, and the first sense primer for CYP3A3 was paired with the second antisense primer used by Kolars et al. (i.e., in the present invention, SEQ ID NO:1 was paired with SEQ ID NO:2).

[9] = system: NADPH cytochrome P450 reductase; test: Immunoblot of NADPH cytochrome P450 reductase in Caco-2 cells; details: for concentrations at which NADPH cytochrome P450 reductase level increased: two weeks treatment
From the text: as §5, §6
(§8) Cell homogenates were then prepared as described above and immunoblots were performed; the Caco-2 protein loads were as follows: 10 ,μg for CYP3A, CYP3A5, P-glycoprotein, villin; 25 pg for CYP1A1, CYP2D6; 40 μg for IFABP, LFABP; 80 μg for NADPH cytochrome P450 reductase, cytochrome b5 (the villin, IFABP, and LFABP served as control proteins).
as §7

CYP3A (Caco-2 cells) [10] = system: CYP3A (Caco-2 cells)
Method: At the end of that period, the medium was replaced with medium not containing vitamin D (except that contributed by the 5% FBS). […] After 6 hours, the apical and basolateral media were removed separately and analyzed for 1'-OH-MDZ concentration.
As previously indicated, the medium was aspirated and the inserts were washed three times with Hanks'BSS. […] After 6 hours, the amount of 1'-OH-MDZ was measured in the combined luminal plus basolateral medium from each culture and the rate of formation calculated.
For the experiments of this example, all cells (Caco-2 cell clones and the parent cell line) were grown on Matrigel-coated teflon culture inserts. […] At the end of this period, the medium was replaced with medium not containing vitamin D (except that contributed by the 5% FBS). Next, MDZ (4 μM) was added to the apical compartment. […] Catalytic activity and levels of protein expression were determined as previously described.
Catalytic activity and levels of protein expression were determined as previously described.

LFABP = test: Immunoblot of LFABP in Caco-2 cells; assay type: cell-based, human; details: two weeks treatment, varying concentrations
From the text: as §5
(§9) P-glycoprotein was detected using a polyclonal rabbit antibody (Oncogene Science), and villin was detected using a mouse monoclonal antibody (Chemicon International).
as §6, §8

villin = test: Immunoblot of villin in Caco-2 cells; assay type: cell-based, human; details: for villin expression at the highest concentrations used: FIG. 3
From the text: as §5, §9, §6, §8

P-glycoprotein = test: Immunoblot of P-glycoprotein in Caco-2 cells; assay type: cell-based, human
From the text: as §5, §9, §6, §8

IFABP = test: Immunoblot of IFABP in Caco-2 cells; assay type: cell-based, human; details: two weeks treatment, varying concentrations
From the text: as §5, §9, §6, §8

cytochrome b5 = test: Immunoblot of cytochrome b5 in Caco-2 cells; assay type: cell-based, human; details: two weeks treatment, varying concentrations
From the text: as §5, §6, §8

Caco-2 cells [11] = details: cited from earlier work
[12] = two weeks treatment from confluence, 4 μM MDZ apical, 6 h, FIG. 2A

SMILES: OCc1ncc2n1-c1ccc(Cl)cc1C(c1ccccc1F)=NC2 [1'-OH-MDZ, 1'-hydroxymidazolam]
- 1'-OH-MDZ concentration, apical vs basolateral (Caco-2 cells [1]): greater in the apical medium than in the basolateral medium
- glucuronidation of 1'-OH-MDZ (Caco-2 cells [2]): had not occurred
- rate of 1'-OH-MDZ formation under serum-free incubation (CYP3A (Caco-2 cells) [3]): decreased compared to that measured in the presence of serum
- rate of 1'-OH-MDZ formation, luminal vs basolateral medium (CYP3A (Caco-2 cells) [3]): greater in the luminal medium than in the basolateral medium

SMILES: C=C1/C(=C\C=C2/CCC[C@]3(C)[C@@H]([C@H](C)CCCC(C)(C)O)CC[C@@H]23)C[C@@H](O)C[C@@H]1O [1α,25-(OH)2 -D3, 1α,25-dihydroxyvitamin D3]
- level of CYP1A1 protein (CYP1A1): did not appear to change
- CYP3A5 mRNA expression [4]: appeared to increase in response to 1α,25-(OH)2 -D3, but to a much lesser degree
- CYP3A7 mRNA expression [5]: appeared to increase in response to 1α,25-(OH)2 -D3, but to a much lesser degree
- level of CYP2D6 protein (CYP2D6): did not appear to change
- exposure time at which CYP3A4 mRNA appeared to plateau ([6]; 0.25 μM, FIG. 5A): 120 h
- exposure time until increase in CYP3A4 mRNA was evident ([6]; 0.25 μM, FIG. 5A): 3 to 4 h
- CYP3A4 mRNA expression, dose-response ([6]; 0.05-1.00 μM, two weeks from confluence): increased CYP3A4 mRNA expression at all concentrations used
- expression of CYP3A4 mRNA ([6]; added to differentiation medium (0.63 μM), two weeks post-confluence, Matrigel-coated Millicell CM inserts): dramatic increase in the expression of CYP3A4 mRNA
- CYP3A immunoreactive protein, clones and parent line (CYP3A (Caco-2 cells) [7]; 0.25 μM two weeks, all five clones and parent): increased levels of CYP3A immunoreactive protein
- exposure time until increased CYP3A protein was evident (CYP3A (Caco-2 cells) [7]; 0.25 μM, FIG. 5A): 18 h
- CYP3A content by densitometry (CYP3A (Caco-2 cells) [7]; 0.5 μM, untreated 7.9): 20.6 pmol CYP3A/mg of total protein
- CYP3A expression in response to 1α,25-(OH)2 -D3 on Matrigel (CYP3A (Caco-2 cells) [7]; M+, D+, 0.25 μM): clearly enhanced when the Caco-2 cells were grown on Matrigel
- CYP3A4 expression at the highest concentrations used (CYP3A (Caco-2 cells) [7]): lower levels of expression
- concentration at which increase in CYP3A immunoreactive protein was evident / began (CYP3A (Caco-2 cells) [7]; two weeks treatment, FIG. 2C): 50 nM
- level of CYP3A5 protein (CYP3A5): little change
- CYP3A3 mRNA [8]: not detected
- NADPH cytochrome P450 reductase expression among clones and parent line ([9]; 0.25 μM two weeks): variable responsiveness
- exposure time until NADPH cytochrome P450 reductase increased ([9]; 0.25 μM, FIG. 5A): 168 h
- concentrations at which NADPH cytochrome P450 reductase level increased [9]: ≥ 50 nM
- CYP3A catalytic activity, clones and parent line (CYP3A (Caco-2 cells) [10]; 0.25 μM two weeks, clones 4-8 and parent, untreated below limits of quantitation): demonstrably greater catalytic activity than the untreated cells
- exposure time until midazolam metabolism first detectable (CYP3A (Caco-2 cells) [10]; 0.25 μM, 4 μM MDZ apical, 6 h, FIG. 5B): 12 h
- difference in CYP3A catalytic activity among culture media (CYP3A (Caco-2 cells) [10]; 5% FBS media with 0.25 μM 1α,25-(OH)2 -D3): less than 4 fold
- CYP3A protein and catalytic activity without Matrigel (CYP3A (Caco-2 cells) [10]; M-, D+, 0.25 μM): increased CYP3A protein and catalytic activity in the absence of Matrigel
- extent of midazolam metabolism (CYP3A (Caco-2 cells) [10]; apical concentrations, FIG. 2A): dramatic increase in the extent of midazolam metabolism
- correlation (R) of midazolam 1'-hydroxylation activity with CYP3A immunoreactive protein (CYP3A (Caco-2 cells) [10]; clones and parent with and without treatment, p=0.0003): 0.987
- concentration at which increase in CYP3A catalytic activity was evident / began (CYP3A (Caco-2 cells) [10]; [12]): 50 nM
- level of LFABP protein (LFABP): Neither of the FABPs showed changes in levels of expression
- villin expression at the highest concentrations used (villin): lower levels of expression
- exposure time until P-glycoprotein increased (P-glycoprotein; 0.25 μM, FIG. 5A): about 72 hours

SMILES: C=C1CC[C@H](O)C/C1=C/C=C1\CCC[C@]2(C)[C@@H]([C@H](C)CCCC(C)(C)O)CC[C@@H]12 [25-(OH)-D3, 25-hydroxyvitamin D3]
- level of CYP1A1 protein (CYP1A1): did not appear to change
- level of CYP2D6 protein (CYP2D6): did not appear to change
- CYP3A4 expression at the highest concentrations used (CYP3A (Caco-2 cells) [7]): lower levels of expression
- concentration at which CYP3A immunoreactive protein plateaued (CYP3A (Caco-2 cells) [7]; two weeks treatment, FIG. 2C): > 1000 nM
- concentration at which increase in CYP3A immunoreactive protein was evident / began (CYP3A (Caco-2 cells) [7]; two weeks treatment, FIG. 2C): 250 nM
- level of CYP3A5 protein (CYP3A5): little change
- level of IFABP protein (IFABP): Neither of the FABPs showed changes in levels of expression
- concentrations at which NADPH cytochrome P450 reductase level increased [9]: ≥ 500 nM
- CYP3A catalytic activity at 15 μM (CYP3A (Caco-2 cells) [10]; 15 μM, relative to maximum at 5 μM, FIG. 2B): substantially declined
- CYP3A catalytic activity at 20 μM (CYP3A (Caco-2 cells) [10]; 20 μM, FIG. 2B): declining still further
- maximal CYP3A catalytic activity achieved (CYP3A (Caco-2 cells) [10]; relative to 1α,25-(OH)2 -D3): not as great as that achieved with 1α,25-(OH)2 -D3
- concentration at which increase in CYP3A catalytic activity was evident / began (CYP3A (Caco-2 cells) [10]; [12]): 250 nM
- concentration at which CYP3A catalytic activity plateaued (CYP3A (Caco-2 cells) [10]; two weeks treatment from confluence, FIG. 2A): > 1000 nM
- concentration of maximal CYP3A catalytic activity (CYP3A (Caco-2 cells) [10]; two weeks treatment, FIG. 2B): 5000 nM
- level of LFABP protein (LFABP): Neither of the FABPs showed changes in levels of expression
- level of villin immunoreactive protein (villin; concentrations ≥10 μM, two weeks, not shown): decrease slightly
- villin expression at the highest concentrations used (villin): lower levels of expression
- concentrations at which immunoreactive P-glycoprotein increased (P-glycoprotein; two weeks treatment): ≥ 2.5 µM
- level of cytochrome b5 immunoreactive protein (cytochrome b5): did not appear to change

SMILES: C=C1CC[C@H](O)C/C1=C/C=C1\CCC[C@]2(C)[C@@H]([C@H](C)CCCC(C)C)CC[C@@H]12 [D3, cholecalciferol]
- Caco-2 cell growth (Caco-2 cells [11]; Giuliano et al.): decrease in cell growth
- Caco-2 cell proliferation (Caco-2 cells [11]; Halline et al.): dose-dependent inhibition of cell proliferation
- effect on immunoreactive CYP3A protein (CYP3A (Caco-2 cells) [7]; up to 1.0 μM, two weeks): no effect
- effect on midazolam metabolism (CYP3A (Caco-2 cells) [10]; up to 1.0 μM, two weeks): no effect

SMILES: CC(=O)OC/C=C(C)/C=C/C=C(C)/C=C/C1=C(C)CCCC1(C)C [Vitamin A, retinol acetate]
- enhancement of CYP3A4 mRNA expression [6]: did not appear to enhance CYP3A4 mRNA expression

SMILES: NCC(=O)CCC(=O)O [delta-aminolevulinic acid]
- enhancement of CYP3A4 mRNA expression [6]: did not appear to enhance CYP3A4 mRNA expression

SMILES: CCCC(=O)[O-].[Na+] [sodium butyrate]
- enhancement of CYP3A4 mRNA expression [6]: did not appear to enhance CYP3A4 mRNA expression

SMILES: C=C1CC[C@H](O)C/C1=C/C=C1\CCC[C@]2(C)[C@@H]([C@H](C)/C=C/[C@H](C)C(C)C)CC[C@@H]12 [vitamin D2, ergocalciferol]
- enhancement of CYP3A4 mRNA expression [6]: did not appear to enhance CYP3A4 mRNA expression

SMILES: CC1(S(=O)(=O)O)CC(=O)c2ccccc2C1=O (stereo not shown) [vitamin K, menadione sodium bisulfite]
- enhancement of CYP3A4 mRNA expression [6]: did not appear to enhance CYP3A4 mRNA expression
